From ChEMBL document CHEMBL1201862, “PubChem BioAssay data set” (2004)
The source made the active and inactive calls.

Assays:
[1] = target: T1, Leucine aminopeptidase (Plasmodium falciparum 3D7, UniProt Q8IL11); test: P. falciparum M17LAP inhibitors, primary screen, biochemical, fluorogenic H-Leu-NHMec substrate, 1536-well (AID 1619); format: functional
T1 sequence (Q8IL11 whole entry): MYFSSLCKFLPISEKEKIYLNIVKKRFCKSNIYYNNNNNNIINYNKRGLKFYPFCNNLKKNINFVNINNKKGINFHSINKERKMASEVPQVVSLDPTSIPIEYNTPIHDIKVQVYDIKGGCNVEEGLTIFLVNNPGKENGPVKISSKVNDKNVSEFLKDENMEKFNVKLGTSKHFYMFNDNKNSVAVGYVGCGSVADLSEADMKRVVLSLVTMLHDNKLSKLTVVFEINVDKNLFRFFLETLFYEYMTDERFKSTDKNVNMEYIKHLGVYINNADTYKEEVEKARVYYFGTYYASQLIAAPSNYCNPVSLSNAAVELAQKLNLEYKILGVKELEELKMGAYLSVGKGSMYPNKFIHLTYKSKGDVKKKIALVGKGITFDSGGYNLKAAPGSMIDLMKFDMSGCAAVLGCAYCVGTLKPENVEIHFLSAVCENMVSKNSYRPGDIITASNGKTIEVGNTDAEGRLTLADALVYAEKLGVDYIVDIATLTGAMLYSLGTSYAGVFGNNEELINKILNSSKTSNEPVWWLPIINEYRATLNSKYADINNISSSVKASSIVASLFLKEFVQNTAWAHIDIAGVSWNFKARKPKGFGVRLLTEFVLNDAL

[2] = Luminescence Cell-Based Dose Confirmation HTS to Identify Activators of 5'UTR Stem-Loop Driven Alpha-Synuclein mRNA Translation in H4 Neuroglioblastoma Cells. [Related pubchem assays: 1829 (Project Summary), 1814 (Primary HTS)]; format: functional
[3] = Luminescence Cell-Based Dose Response HTS to Identify Activators of Luciferase Translation or Activity in H4 […] Cells. [Related pubchem assays: 1829 (Project Summary), 1814 (Primary HTS)]; format: functional
[4] = tested on: H4; test: Luminescence Cell-Based Dose Response HTS to Identify Activators of 5'UTR Stem-Loop Driven Prion Protein mRNA Translation in H4 Neuroglioblastoma Cells. [Related pubchem assays: 1829 (Project Summary), 1814 (Primary HTS)]; format: functional; conditions: Homo sapiens
[5] = target: T2, Polyadenylate-binding protein 1 (Homo sapiens, UniProt P11940); test: PABP1 MLLE–PAM2 interaction inhibitors, dose response, miRNA deadenylation inhibitor project, biochemical, fluorescence polarization, Cy5-PAM2 peptide, secondary (AID 602260); format: functional; conditions: read-out: IC50_Mean
T2 sequence (P11940 whole entry): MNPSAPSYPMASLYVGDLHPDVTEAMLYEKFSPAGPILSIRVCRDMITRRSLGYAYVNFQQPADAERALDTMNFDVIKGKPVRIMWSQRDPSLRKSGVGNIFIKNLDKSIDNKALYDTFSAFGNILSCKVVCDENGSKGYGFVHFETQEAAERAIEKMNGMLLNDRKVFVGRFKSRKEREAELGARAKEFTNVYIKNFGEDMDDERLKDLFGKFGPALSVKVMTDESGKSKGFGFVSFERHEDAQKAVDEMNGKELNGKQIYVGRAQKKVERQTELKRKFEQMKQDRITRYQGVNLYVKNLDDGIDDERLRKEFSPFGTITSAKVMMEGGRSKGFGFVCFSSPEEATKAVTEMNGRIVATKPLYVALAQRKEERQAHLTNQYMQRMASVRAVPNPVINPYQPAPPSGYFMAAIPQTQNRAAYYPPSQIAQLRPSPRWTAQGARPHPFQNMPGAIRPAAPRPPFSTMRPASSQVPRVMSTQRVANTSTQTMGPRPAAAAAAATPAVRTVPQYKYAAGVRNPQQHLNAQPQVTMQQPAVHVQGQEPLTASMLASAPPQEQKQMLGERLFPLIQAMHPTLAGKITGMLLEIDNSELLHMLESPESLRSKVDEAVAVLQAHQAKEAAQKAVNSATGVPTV

[6] = target: T2, Polyadenylate-binding protein 1; test: PABP1 MLLE–PAM2 binding inhibitor potency, dose response, biochemical, fluorescence polarization, FITC-PAM2 peptide (AID 602259); format: functional; conditions: read-out: IC50_Mean
[7] = target: T3, RNA-binding protein pos-1 (Caenorhabditis elegans, UniProt G5EF15); test: inhibitors of POS-1/mex-3 RNA binding, dose response, biochemical, fluorescence polarization (AID 1964);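 also: purified POS-1 fused to maltose binding protein made in E. coli; potency of compounds blocking POS-1 binding to fluorescent RNA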
T3 sequence (G5EF15 whole entry): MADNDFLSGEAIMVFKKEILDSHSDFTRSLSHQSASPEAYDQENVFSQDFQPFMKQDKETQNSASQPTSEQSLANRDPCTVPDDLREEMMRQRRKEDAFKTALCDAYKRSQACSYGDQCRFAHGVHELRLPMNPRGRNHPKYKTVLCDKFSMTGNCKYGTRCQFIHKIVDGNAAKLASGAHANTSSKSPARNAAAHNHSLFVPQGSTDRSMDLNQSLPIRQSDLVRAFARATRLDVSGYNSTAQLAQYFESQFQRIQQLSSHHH

[8] = target: T4, Zinc finger protein mex-5 (Caenorhabditis elegans, UniProt Q9XUB2); test: MEX-5/TCR-2 RNA interaction inhibitors, dose response, biochemical, C. elegans, fluorescence polarization (AID 1960)
T4 sequence (Q9XUB2 whole entry): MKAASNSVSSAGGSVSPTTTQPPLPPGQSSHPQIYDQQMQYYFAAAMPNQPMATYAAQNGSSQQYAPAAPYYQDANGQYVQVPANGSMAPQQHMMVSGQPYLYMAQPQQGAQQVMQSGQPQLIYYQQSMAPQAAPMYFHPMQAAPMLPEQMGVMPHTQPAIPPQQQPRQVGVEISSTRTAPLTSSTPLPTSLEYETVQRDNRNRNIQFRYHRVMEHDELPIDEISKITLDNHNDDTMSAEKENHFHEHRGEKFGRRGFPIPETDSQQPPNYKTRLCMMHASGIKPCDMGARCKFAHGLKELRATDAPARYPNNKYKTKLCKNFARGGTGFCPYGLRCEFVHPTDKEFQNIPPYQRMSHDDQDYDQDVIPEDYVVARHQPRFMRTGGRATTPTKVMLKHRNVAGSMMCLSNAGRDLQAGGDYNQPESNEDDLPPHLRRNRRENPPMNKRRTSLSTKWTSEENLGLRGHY

[9] = target: Cytochrome P450 2C19 (Homo sapiens, UniProt P33261); test: Cytochrome panel assay with activity outcomes. Panel member name: p450-cyp2c19 Compounds with AC50 equal or less than 10 uM are considered active; format: functional; conditions: read-out: AC50
Chain of Cytochrome P450 2C19 (P33261 whole entry): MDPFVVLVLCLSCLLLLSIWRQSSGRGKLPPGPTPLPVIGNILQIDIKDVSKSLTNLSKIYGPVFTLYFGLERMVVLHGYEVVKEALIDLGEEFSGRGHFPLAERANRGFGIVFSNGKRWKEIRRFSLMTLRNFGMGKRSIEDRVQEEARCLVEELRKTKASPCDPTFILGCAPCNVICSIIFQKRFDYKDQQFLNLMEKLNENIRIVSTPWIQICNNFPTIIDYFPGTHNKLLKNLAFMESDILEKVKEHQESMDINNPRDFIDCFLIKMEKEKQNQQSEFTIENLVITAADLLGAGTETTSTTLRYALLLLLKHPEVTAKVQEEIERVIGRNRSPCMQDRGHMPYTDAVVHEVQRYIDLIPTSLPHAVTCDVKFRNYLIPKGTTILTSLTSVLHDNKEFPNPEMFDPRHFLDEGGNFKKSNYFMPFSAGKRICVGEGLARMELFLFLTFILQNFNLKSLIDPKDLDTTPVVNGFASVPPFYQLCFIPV

In the case of `Cc1ccc(NC(=O)Cn2nc(C)c3ccccc3c2=O)cc1F`, the IC50 [1] was 14 µM (active).

For `O=C(CSC1=NCCS1)Nc1nc2ccccc2s1`, the EC50 [2] was 15 µM (active), the EC50 [3] was 12.5 µM (active) and the EC50 [4] was 9.16 µM (active). For the same molecule, the IC50 [5] was > 66 µM (inactive) and the IC50 [6] was > 66 µM (inactive).

In the case of `NC(=NOC(=O)CSc1ccccc1)c1ccc([N+](=O)[O-])cc1`, the EC50 [2] was 11.5 µM (active), the EC50 [3] was 9.44 µM (active) and the EC50 [4] was > 120 µM (not active). For the same molecule, the IC50 [5] was > 66 µM (inactive) and the IC50 [6] was > 66 µM (inactive).

With `Cc1ccc(Nc2cnn(C34CC5CC(CC(CC(=O)O)(C5)C3)C4)c(=O)c2Cl)c(Cl)c1` the IC50 [1] was 24.4 µM (active).

In the case of `CC(C)Sc1nc(-c2ccccc2)cc(=O)[nH]1`, the IC50 [1] was 28.3 µM (active).

In the case of `Cc1ccc(C)c(NC(=O)CSc2ncnc3nc[nH]c23)c1`, the IC50 [1] was 50.8 µM (active).

With `COc1ccc(C2C(C#N)=C(N)OC3=C2C(=O)CC(C)(C)C3)c([N+](=O)[O-])c1OC` (configuration not stated) the EC50 [7] was > 300 µM (not active), the EC50 [8] was > 300 µM (not active) and the AC50 [9] was 14.1 µM (inconclusive). The IC50 [5] was > 66 µM (inactive) and the IC50 [6] was > 66 µM (inactive).

With `O=C(NCc1ccco1)C(=O)c1cn(CC(=O)N2CCCC2)c2ccccc12` the IC50 [1] was 73.3 µM (active).

In the case of `COc1cc(NS(=O)(=O)c2ccc(NC(=O)CSC3=NCCS3)cc2)nc(OC)n1`, the IC50 [1] was 2.12 µM (active).

In the case of `O=C(O)c1cccc(Cn2c(Cl)c(/C=N/NC(=O)c3ccccc3)sc2=O)c1`, the IC50 [1] was 20.8 µM (active).
